From PMC9976898 (2022)

Test system: F7-40 (DNA, aptamer) CTTACGACCACCATGGGAATCGGGTGGCTTGGAGGTGCGT
Experiment: ITC
Settings: 20 mM NaCl, 0.5 mM MgCl2; 10 mM Tris-HCl pH 7.4, 1% methanol, 23 °C

KD: 62.1 ± 4.9 µM
SMILES: C=C[C@H]1CN2CC[C@H]1C[C@H]2[C@H](O)c1ccnc2ccc(OC)cc12
